melting point: 179 to 181 °C
Structure (SMILES): CCOC(=O)c1cccc(SCCCN2CCC(n3c(CC)cc4cc(F)ccc43)CC2)c1 [Example 36, 3-{3-[4-(2-Ethyl-5-fluoro-indol-1-yl)-piperidin-1-yl]propylsulfanyl}-benzoic acid ethyl ester]
